# In patent publication US11084814B2, “Pyrido[3, 4-d]pyrimidine derivative and pharmaceutically acceptable salt thereof” (Teijin Pharma Limited, priority 2016, dated 2021):
# Columns and labels:
# CDK4/cyclin D3 = target: T1, CDK4/cyclin D3 (Homo sapiens, UniProt P11802); assay: Human CDK4/cyclin D3 inhibitory activity (QS S Assist CDK4/Cyclin D3_FP Kit, IMAP fluorescent polarization); assay type: biochemical; details: read-out: CDK4 Activity symbol
# T1 construct: purchased Carna Biosciences, Inc. QS S Assist CDK4/Cyclin D3_FP Kit
# Outline: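 Kinase reactions used kit CDK4/cyclin D3 at 12.5–25 ng/well with the kit ATP/substrate/metal mix in 20 mM HEPES (pH 7.4), 0.01% Tween20 and 2 mM DTT, run 45 min at room temperature. Phosphorylation was detected by IMAP fluorescence polarization (ex 485/em 535 nm) after 30 min binding in the dark. IC50 was fitted from percent inhibition against DMSO controls with and without enzyme.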
# CDK2/cyclin A2 = target: T2, CDK2/cyclin A2 (Homo sapiens, UniProt P24941); assay: Human CDK2/cyclin A2 inhibitory activity (QS S Assist CDK2/Cyclin A2_FP Kit, IMAP fluorescent polarization); assay type: biochemical; details: read-out: CDK2 Activity symbol
# T2 construct: purchased Carna Biosciences, Inc. QS S Assist CDK2/Cyclin A2_FP Kit
# Outline: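 Kit CDK2/cyclin A2 (2.5 ng/well) was reacted with kit ATP/substrate/metal in 20 mM HEPES pH 7.4, 0.01% Tween 20 and 2 mM DTT for 60 min at room temperature. IMAP binding reagent was added for 30 min, then fluorescence polarization was read at 485/535 nm. IC50 came from dose-response fitting of percent inhibition.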
# T1 sequence (P11802 whole entry): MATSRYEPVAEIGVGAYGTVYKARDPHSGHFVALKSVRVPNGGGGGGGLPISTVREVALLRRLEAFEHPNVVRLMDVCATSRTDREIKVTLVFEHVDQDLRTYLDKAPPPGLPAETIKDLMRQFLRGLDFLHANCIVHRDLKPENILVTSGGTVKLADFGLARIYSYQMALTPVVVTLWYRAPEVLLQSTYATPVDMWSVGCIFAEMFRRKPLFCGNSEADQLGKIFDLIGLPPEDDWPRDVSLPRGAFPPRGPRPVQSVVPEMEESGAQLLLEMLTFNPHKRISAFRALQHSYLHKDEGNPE
# T1 sequence (P30281 whole entry partner): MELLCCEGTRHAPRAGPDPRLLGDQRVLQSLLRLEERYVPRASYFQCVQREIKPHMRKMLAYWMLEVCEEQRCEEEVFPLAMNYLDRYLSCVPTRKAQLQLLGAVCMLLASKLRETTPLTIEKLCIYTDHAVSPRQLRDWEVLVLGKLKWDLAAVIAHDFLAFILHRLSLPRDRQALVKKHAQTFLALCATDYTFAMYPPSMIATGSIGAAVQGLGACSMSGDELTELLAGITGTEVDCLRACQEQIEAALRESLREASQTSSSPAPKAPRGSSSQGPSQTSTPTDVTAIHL
Compound,IC50 (CDK4/cyclin D3) [nM],IC50 (CDK2/cyclin A2) [nM]
CC(O)c1cc2cnc(Nc3ccc(N4CCNCC4=O)cn3)nc2c(N2CCCC2C)n1 (centres unmarked) [Compound 302],< 10,10 to 100
CC(O)c1cc2cnc(Nc3ccc(CN4CCN(C)CC4)cn3)nc2c(N2C3CCCC2CC3)n1 (centres unmarked) [Compound 174],< 10,≥ 100
CC(O)c1cc2cnc(Nc3ccc(CN4CCN(CCO)CC4)cn3)nc2c(N2C3CCC2COC3)n1 (centres unmarked) [Compound 295],< 10,≥ 100
C[C@@H](O)c1cc2cnc(Nc3ccc(O[C@H]4CCCNC4)cn3)nc2c(N2CCC[C@H](F)C2)n1 [Compound 251],< 10,≥ 100
C[C@@H](O)c1cc2cnc(Nc3ccc4c(n3)CCN(C(=O)CN3CC[C@@H](F)C3)C4)nc2c(N2C3CCC2CC3)n1 [Compound 231],< 10,≥ 100
C[C@@H](O)c1cc2cnc(Nc3ccc4c(n3)CCN(C(=O)Cn3nccn3)C4)nc2c(N2CCCCC2)n1 [Compound 337],10 to 100,≥ 100
OCc1cc2cnc(Nc3ccc(N4CCNCC4)cn3)nc2c(N2CCOCC2)n1 [Compound 7],< 10,≥ 100
C[C@@H](O)c1cc2cnc(Nc3ccc(CN4CCN(C)CC4)cn3)nc2c(N2C3CCC2CC3)n1 [Compound 143],< 10,≥ 100
C[C@@H](O)c1cc2cnc(Nc3ccc4c(n3)CCN(C(=O)Cc3ccncc3)C4)nc2c(N2CCCCC2)n1 [Compound 285],10 to 100,≥ 100
C[C@@H](O)c1cc2cnc(Nc3ccc4c(n3)CCN(C(=O)C3CCN(C)CC3)C4)nc2c(N2CCCCC2)n1 [Compound 149],< 10,≥ 100
C[C@@H](O)c1cc2cnc(Nc3ccc(CN4CCNCC4)cn3)nc2c(N2CCCC2C(=O)O)n1 (some centres unmarked) [Compound 42],≥ 100,≥ 100
C[C@@H](O)c1cc2cnc(Nc3ccc4c(n3)CCN(CCO)C4)nc2c(N2CCC(F)CC2)n1 [Compound 112],< 10,≥ 100
C[C@@H](O)c1cc2cnc(Nc3ccc(N4CC5(C4)CN(C4COC4)C5)nn3)nc2c(N2CCCCC2)n1 [Compound 324],< 10,≥ 100
CC(O)c1cc2cnc(Nc3ccc(CN4CCN(C)CC4)cn3)nc2c(N2C3CCC2COC3)n1 (centres unmarked) [Compound 292],< 10,≥ 100
C[C@@H](O)c1cc2cnc(Nc3ccc4c(n3)CCN(C(=O)CN3CC5(COC5)C3)C4)nc2c(N2CCCCC2)n1 [Compound 266],< 10,≥ 100
C[C@@H](O)c1cc2cnc(Nc3ccc4c(n3)CCN(C(=O)C3CNCCO3)C4)nc2c(N2CCCCC2)n1 (some centres unmarked) [Compound 216],< 10,≥ 100

Compound,IC50 (CDK4/cyclin D3) [nM],IC50 (CDK2/cyclin A2) [nM]
CC(O)c1cc2cnc(Nc3ccc4c(n3)CC3CCC4N3CCO)nc2c(N2CCCCC2)n1 (centres unmarked) [Compound 280],10 to 100,≥ 100
C[C@@H](O)c1cc2cnc(Nc3ccc(N4CCN(C)CC4)nn3)nc2c(N2CCC(F)CC2)n1 [Compound 124],< 10,≥ 100
C[C@@H](O)c1cc2cnc(Nc3ccc(N4CCNCC4=O)cn3)nc2c(N2CCOC[C@@H]2C)n1 [Compound 299],10 to 100,≥ 100
C[C@@H](O)c1cc2cnc(Nc3ccc4c(n3)CCN(C3CN(C)C3)C4)nc2c(N2CCCCC2)n1 [Compound 200],< 10,≥ 100
C[C@@H](O)c1cc2cnc(Nc3ccc4c(n3)CCN(C(=O)Cc3ccccn3)C4)nc2c(N2CCCCC2)n1 [Compound 335],10 to 100,≥ 100
C[C@@H](O)c1cc2cnc(Nc3ccc(N4CCNCC4=O)cn3)nc2c(N2CCC(C#N)CC2)n1 [Compound 272],< 10,≥ 100
C[C@@H](O)c1cc2cnc(Nc3ccc(N4CCNCCC4=O)cn3)nc2c(N2CCCCC2)n1 [Compound 89],< 10,≥ 100
CC[C@H](O)c1cc2cnc(Nc3ccc(N4CCNCC4=O)cn3)nc2c(N2CCC[C@H]2C)n1 [Compound 246],< 10,≥ 100
C[C@@H](O)c1cc2cnc(Nc3ccc(C(=O)N4CCS(=O)(=O)CC4)cn3)nc2c(N2CCCCC2)n1 [Compound 314],< 10,≥ 100
C[C@@H](O)c1cc2cnc(Nc3ccc4c(n3)CCN(CCO)C4)nc2c(N2CCC(C#N)CC2)n1 [Compound 278],< 10,≥ 100
CC[C@@H](O)c1cc2cnc(Nc3ccc(N4CCNCC4=O)cn3)nc2c(N2CCC[C@H]2C)n1 [Compound 245],< 10,≥ 100
C[C@@H](O)c1cc2cnc(Nc3ccc4c(n3)CCN(C3CN(C)C3)C4)nc2c(N2CCC(C#N)CC2)n1 [Compound 279],< 10,≥ 100
C[C@@H](O)c1cc2cnc(Nc3ccc(N4CCN(C)CC4=O)cn3)nc2c(N2CCCC2)n1 [Compound 73],10 to 100,≥ 100
C[C@@H](O)c1cc2cnc(Nc3ccc4c(n3)CCN(C(=O)[C@@H]3CCCN3C)C4)nc2c(N2C3CCC2CC3)n1 [Compound 223],< 10,≥ 100
C[C@@H](O)c1cc2cnc(Nc3ccc4c(n3)CCN(C(=O)Cc3cccnc3)C4)nc2c(N2CCCCC2)n1 [Compound 330],10 to 100,≥ 100

# Results, then the compound that gave them:
IC50 (CDK4/cyclin D3) [nM],IC50 (CDK2/cyclin A2) [nM],Compound
< 10,≥ 100,"C[C@H](O)CN1CCN(Cc2ccc(Nc3ncc4cc([C@@H](C)O)nc(N5CCCCC5)c4n3)nc2)CC1 [Compound 183, (S)-1-(4-((6-((6-((R)-1-hydroxyethyl)-8-(piperidin-1-yl)pyrido[3,4-d]pyrimidin-2-yl)amino)pyridin-3-yl)methyl)piperazin-1-yl)propan-2-ol]"
< 10,≥ 100,C[C@@H](O)c1cc2cnc(Nc3ccc4c(n3)CCN(C3CN(CCO)C3)C4)nc2c(N2CCCCC2)n1 [Compound 176]
< 10,≥ 100,OCCN1CCc2nc(Nc3ncc4cc(CO)nc(N5CCCCC5)c4n3)ccc2C1 [Compound 135]
10 to 100,≥ 100,NC(=O)c1cc2cnc(Nc3ccc(N4CCNCC4)cn3)nc2c(N2CCCCC2)n1 [Compound 28]
< 10,≥ 100,C[C@@H](O)c1cc2cnc(Nc3ccc(CN4CCN(C)CC4)cn3)nc2c(N2CCC(C(F)(F)F)CC2)n1 [Compound 144]
< 10,≥ 100,C[C@@H](O)c1cc2cnc(Nc3ccc(C(=O)N4CCN(CCO)CC4)cn3)nc2c(N2CCCCC2)n1 [Compound 308]
< 10,≥ 100,CC(O)c1cc2cnc(Nc3ccc(CN4CCN(C)CC4)cn3)nc2c(N2CC3CC3C2)n1 (centres unmarked) [Compound 157]
< 10,≥ 100,OCCN1CCN(Cc2ccc(Nc3ncc4cc(C5COC5)nc(N5CCCCC5)c4n3)nc2)CC1 [Compound 275]
10 to 100,≥ 100,c1cc(N2CCNCC2)nnc1Nc1ncc2cc(C3COC3)nc(N3CCCCC3)c2n1 [Compound 277]
< 10,≥ 100,C[C@@H](O)c1cc2cnc(Nc3ccc(CN4CCN(CCO)CC4)cn3)nc2c(N2CCC(C#N)CC2)n1 [Compound 271]
< 10,≥ 100,CC(O)c1cc2cnc(Nc3ccc(CN4CCN(C)CC4C)cn3)nc2c(N2CCCCC2)n1 (centres unmarked) [Compound 152]
< 10,≥ 100,C[C@@H](O)c1cc2cnc(Nc3ccc(CN4CCC(CO)CC4)cn3)nc2c(N2CCCCC2)n1 [Compound 68]
< 10,≥ 100,CC[C@H](O)c1cc2cnc(Nc3ccc(CN4CCN(CCO)CC4)cn3)nc2c(N2CCCCC2)n1 [Compound 160]
< 10,≥ 100,C[C@@H](O)c1cc2cnc(Nc3ccc(N4CCN(C)CCC4=O)cn3)nc2c(N2CCCCC2)n1 [Compound 121]
< 10,≥ 100,C[C@@H](O)c1cc2cnc(Nc3ccc(CN4CCN(C)CC4)cn3)nc2c(N2CCCCC2)n1 [Compound 56]
10 to 100,≥ 100,CC(=O)c1cc2cnc(Nc3ccc(N4CCNCC4)cn3)nc2c(N2CCCCC2)n1 [Compound 26]
< 10,≥ 100,C[C@@H](O)c1cc2cnc(Nc3ccc(CN4CCN(CCO)CC4)cn3)nc2c(N2CC[C@@H](F)C2)n1 [Compound 182]
< 10,≥ 100,Cc1nc(Nc2ncc3cc([C@@H](C)O)nc(N4CCCCC4)c3n2)ccc1N1CCN(CCO)CC1 [Compound 88]
< 10,≥ 100,C[C@@H](O)c1cc2cnc(Nc3ccc(CN4CCN(CCO)CC4)cn3)nc2c(N2CCCOCC2)n1 [Compound 178]
< 10,≥ 100,C[C@@H](O)c1cc2cnc(Nc3ccc(N4CCN(CCS(C)(=O)=O)CCC4=O)cn3)nc2c(N2CCCCC2)n1 [Compound 259]
10 to 100,≥ 100,C[C@@H](O)Cc1cc2cnc(Nc3ccc4c(n3)CCN(CCO)C4)nc2c(N2CCCCC2)n1 [Compound 170]
< 10,≥ 100,C[C@@H](O)c1cc2cnc(Nc3ccc(CN4CCN(C)CC4)cn3)nc2c(N2CCC(F)CC2)n1 [Compound 115]
< 10,≥ 100,C[C@@H](O)c1cc2cnc(Nc3ccc(CN4CCN(C)CC4)cn3)nc2c(N2CCC[C@H](F)C2)n1 [Compound 179]
< 10,≥ 100,C[C@@H](O)c1cc2cnc(Nc3ccc(CN4CCC(C#N)CC4)cn3)nc2c(N2CCCCC2)n1 [Compound 326]
